The structures appear in SMILES notation.

In assay [1] the target is T1, BACE1 (beta-secretase 1) (Homo sapiens, UniProt P56817).
T1 construct: commercial BACE1 enzyme (Sigma); amine-coupled on CM5 chip for SPR, free enzyme in FRET assay
Briefly: FRET substrate cleavage assay (Sigma kit). It counts as biochemical.

Assay [2] deals with T2, Aβ1-42 (amyloid-β1-42) oligomer (Homo sapiens, UniProt P05067).
T2 construct: gene APP; commercial 42-residue peptide (Sigma), cut from amyloid precursor protein (APP residues 672-713); oligomer, amine-coupled on CM5 chip
T2 sequence (P05067 672-713): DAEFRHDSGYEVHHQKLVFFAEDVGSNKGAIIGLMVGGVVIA
Briefly: SPR (Biacore T200, steady-state affinity). The format is binding. (In SPR one partner is held on a chip, and binding of the other changes the refractive index at the surface.)

Assay [3] concerns the target T1, BACE1 (beta-secretase 1). The assay is described as follows: SPR (Biacore T200, steady-state affinity). It counts as binding.

T1 sequence (P56817 46-501): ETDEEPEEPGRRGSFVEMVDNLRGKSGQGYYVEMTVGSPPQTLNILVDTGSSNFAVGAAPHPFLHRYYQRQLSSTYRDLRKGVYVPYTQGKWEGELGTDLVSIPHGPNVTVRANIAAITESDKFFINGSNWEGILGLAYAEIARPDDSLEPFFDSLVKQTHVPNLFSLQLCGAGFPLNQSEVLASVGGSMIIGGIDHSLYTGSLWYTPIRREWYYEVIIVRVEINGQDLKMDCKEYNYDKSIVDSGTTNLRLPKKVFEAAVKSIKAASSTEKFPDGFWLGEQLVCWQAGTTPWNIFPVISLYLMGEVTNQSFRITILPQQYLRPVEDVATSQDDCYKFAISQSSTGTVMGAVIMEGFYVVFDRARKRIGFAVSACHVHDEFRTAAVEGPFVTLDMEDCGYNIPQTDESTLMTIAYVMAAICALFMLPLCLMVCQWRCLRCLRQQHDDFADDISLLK

On to `COc1ccc2cc3[n+](cc2c1OC)CCc1cc2c(cc1-3)OCO2` [berberine], for which inhibition in assay [1] was half-maximal at 63 µM (IC50). Moreover, the Kd – broadly, a measure of binding affinity in units of concentration – in assay [2] was found to be 1.49 µM; in assay [3], 1.26 µM.

Source of the values: paper PMC6066535, “Polypharmacology of Berberine Based on Multi-Target Binding Motifs” (Frontiers in Pharmacology, 2018).
